Measured values reported in patent US10870886B2, “Molecular diagnosis of FSHD by epigenetic signature” (University of Massachusetts Medical Center, priority 2014, dated 2020).

Columns and labels:
DUX4-fl = DUX4-fl mRNA expression by qRT-PCR in myogenic cells treated with epigenetic drugs; format: cell-based, human; details: for DUX4-fl response: cells from nonmanifesting subjects 15B, 28B, 30B; for DUX4-fl levels: healthy control myogenic cells (five cohorts)
Procedure: (§1) Drug treatment. Stock solutions of 100 mM 5-Aza-2′-deoxycytidine/Decitabine, (Sigma-Aldrich A3656) in DMSO, 5 mM Trichostatin A solution (TSA, Sigma-Aldrich T1952), and 10 mM chaetocin (Sigma-Aldrich C9492) in DMSO were stored at −20° C. and diluted with PBS just before adding to the culture. To minimize culturing artifacts, low passage (<30 population doublings) myoblast cultures were used for all experiments and culture pairs for affected vs healthy or affected vs nonmanifesting were within 1 passage of each other in all instances. Myoblasts were seeded on collagen-coated plates at a cell density of 1.9×10^3/cm^2. Starting the following day, Decitabine (5 μM final concentration) was added daily for a total of 3 days. When used, TSA (200 nM final concentration) or chaetocin (50 nM final concentration) was added to the cells for the last 24 hrs prior to sampling.
qRT-PCR. Total RNAs were extracted using Trizol (Invitrogen) and purified using the RNeasy Mini kit (Qiagen) after on-column DNase I digestion. Total RNA (2 μg) was used for cDNA synthesis using Superscript III Reverse Transcriptase (Invitrogen), and 200 ng of cDNA were used for DUX4-fl qPCR analysis as described. All data were normalized to levels of 18S rRNA [98]. Oligonucleotide primer sequences are provided in [33]. For the analysis of ANKRD1 mRNA expression, 40 ng of cDNA were used with primers hANKRD1 For: […] (SEQ ID NO: 16) and Rev: […] (SEQ ID NO: 17).

[1] = test system: ANKRD1 (Ankyrin Repeat Domain 1); assay: ANKRD1 mRNA expression by qRT-PCR in drug-treated myocytes (control gene); format: cell-based, human; details: myocytes of cohorts 07 and 19, affected (A) and control (U)
Procedure: as §1
qRT-PCR. Total RNAs were extracted using Trizol (Invitrogen) and purified using the RNeasy Mini kit (Qiagen) after on-column DNase I digestion. Total RNA (2 μg) was used for cDNA synthesis using Superscript III Reverse Transcriptase (Invitrogen), and 200 ng of cDNA were used for DUX4-fl qPCR analysis as described. All data were normalized to levels of 18S rRNA [98]. Oligonucleotide primer sequences are provided in [33]. For the analysis of ANKRD1 mRNA expression, 40 ng of cDNA were used with primers hANKRD1 For: […] […]

[2] = cells from FSHD1 individuals manifesting weakness 15A, 28A, 29A, 30A
[3] = myogenic cells of FSHD1-affected subject 03A, relative to untreated, Decitabine 5 μM daily 3 days, TSA 200 nM last 24 hrs

Structure (SMILES) | DUX4-fl expression (DUX4-fl; [2]) | DUX4-fl response (DUX4-fl) | DUX4-fl induction (DUX4-fl; cohort 07, as quoted in FIG. 22 legend from FIG. 20) | DUX4-fl induction (DUX4-fl; cohort 19, as quoted in FIG. 22 legend from FIG. 20) | DUX4-fl levels (DUX4-fl) | DUX4-fl induction (DUX4-fl; [3]) | DUX4-fl induction (DUX4-fl; myogenic cells of FSHD1-affected subject 07A, relative to untreated) | DUX4-fl induction (DUX4-fl; myogenic cells of FSHD1-affected subject 09A) | DUX4-fl induction (DUX4-fl; myogenic cells of FSHD1-affected subject 17A, relative to untreated) | DUX4-fl induction (DUX4-fl; myogenic cells of FSHD1-affected subject 19A, relative to untreated) | DUX4-fl expression (DUX4-fl; cohorts 07 and 19) | ANKRD1 expression [1]
Nc1ncn([C@H]2C[C@H](O)[C@@H](CO)O2)c(=O)n1 [Decitabine, 5-aza-2′-deoxycytidine] | induced DUX4-fl expression | little to no response | 20 fold | 32 fold | only mildly induced | 50 fold | 120 fold | did not show induction | 3.2 fold | 122 fold |  | 
CC(/C=C/C(=O)NO)=C\[C@@H](C)C(=O)c1ccc(N(C)C)cc1 [TSA, Trichostatin A] | little to no effect | little to no response |  |  | no effect | showed induction |  |  |  |  | no effect | induced ANKRD1 expression
